# Results published in patent US9738768B2, “Blowing agent composition of hydrochlorofluoroolefin” (Arkema Inc., priority 2007, dated 2017).
# Tests used:
# [1] = system: Salmonella typhimurium tester strains (TA1535, TA1537, TA98, TA100); test: Ames bacterial reverse mutation assay, vapor-phase exposure by desiccator methodology; type: cell-based; settings: for mutagenicity / toxicity of the single isomer as concluded from the Ames tests of mixture and purified material: conclusion from comparing the 71.2/28.5 trans/cis mixture with the 96.5 wt % trans material
# Method: (§1) Toxological testing was undertaken as part of the evaluation of HCFO-1233zd as a blowing agent. Ames testing was performed on a blend of trans- and cis- HCFO-1233zd and purified trans- HCFO-1233zd. The Ames test is a study designed to determine if a material can interact with DNA and cause point mutations, i.e. to determine if a material is mutagenic. Many carcinogenic materials are also mutagenic and this assay is often used as a quick screen for potential to cause an adverse effect on genetic material. It utilizes several strains of bacteria (Salmonella typhimurium and E. coli) and is often routinely included when developing the toxicology profile of a substance. If a substance substantially increases the mutation rate in the bacterial tester strains, the study result is defined as positive and the test substance is considered to be mutagenic.
# (§2) The purpose of the study was to evaluate the mutagenic potential of the test article vapor by measuring it ability to induce reverse mutations at selected loci of several stains of Salmonella typhimurium and at the tryptophan locus of Escherichia coli strains WP2 uvrA in the presence and absence of Aroclor-induced rat liver S9. The test system was exposed to the test article via desiccator methodology. For each replicate plating, the mean and standard deviation of the number of revertants per plate were calculated and reported. Negative and positive controls were also run.
# (§3) For the test article to be evaluated positive, it must cause a dose-related increase in the mean revertants per plate of at least one tester strain over a minimum of two increasing concentrations of test article. Data for tester strains TA1535 and TA1537 were judged positive if the increase in mean revertants at the peak of the dose response is equal to or judged greater than 3.0-times the mean vehicle control value. Data sets for tester strains TA98, TA100 and WP2 uvrA were judged positive if the increase in mean revertants at the peak of the dose response is equal to or greater than 2.0-times the mean vehicle control value.
# [2] = system: Escherichia coli strains WP2 uvrA (tryptophan locus); test: as above; type: cell-based; settings: E. coli WP2 uvrA
# Method: as §1, §2, §3
compound,measurement,setting,value
"FC(F)(F)/C=C/Cl [trans-isomer of 1-chloro-3,3,3-trifluoropropene, trans-1-chloro-3,3,3-trifluoropropene]",mutagenicity / toxicity of the single isomer as concluded from the Ames tests of mixture and purified material,[1],less toxic
same,mutagenicity / toxicity of the single isomer as concluded from the Ames tests of mixture and purified material,[1]; listed as trans isomer,significantly lower genotoxicity
"FC(F)(F)/C=C\Cl [cis-isomer, cis-1-chloro-3,3,3-trifluoropropene]",mutagenicity / toxicity of the single isomer as concluded from the Ames tests of mixture and purified material,[1],active mutagenic agent
"FC(F)(F)C=CCl [purified material, 1-chloro-3,3,3-trifluoropropene]",Ames test result (mutagenic response),"[1]; Salmonella typhimurium tester strains, presence and absence of Aroclor-induced rat liver S9",did not cause a positive mutagenic response
same,toxicity to tester strains,"[1]; Salmonella typhimurium tester strains, with and without S9",No toxicity was observed
same,Ames test result (mutagenic response),[2]; presence and absence of Aroclor-induced rat liver S9,did not cause a positive mutagenic response
same,toxicity to tester strains,[2]; with and without S9,No toxicity was observed
